# Data reported in patent publication US10786508B2, “Substituted imidazo[1,5-A]-pyrimidines and their use in the treatment of medical disorders” (Lysosomal Therapeutics Inc., priority 2014, dated 2020).
# What was measured:
# [1] = Compound solubility in water; assay type: physicochemical
# [2] = molecular target: T1, glucocerebrosidase (Gcase) (Homo sapiens, UniProt P04062); assay: Glucocerebrosidase (Gcase) activation assay, 4-methylumbelliferyl-beta-D-glucopyranoside substrate, with saposin C; assay type: biochemical; settings: 10 nM GCase, 100 nM saposin C, pH 4.7; for activation at 0.1 µM: 0.1 μM test compound, read-out: Percent Gease Activation 0.1 μM Test Compound; for activation at 1 µM: 1 μM test compound, read-out: Percent Gease Activation 1 μM Test Compound
# T1 construct: micellar solution containing 10 nM GCase and 100 nM saposin C
# T1 sequence (P04062 40-536): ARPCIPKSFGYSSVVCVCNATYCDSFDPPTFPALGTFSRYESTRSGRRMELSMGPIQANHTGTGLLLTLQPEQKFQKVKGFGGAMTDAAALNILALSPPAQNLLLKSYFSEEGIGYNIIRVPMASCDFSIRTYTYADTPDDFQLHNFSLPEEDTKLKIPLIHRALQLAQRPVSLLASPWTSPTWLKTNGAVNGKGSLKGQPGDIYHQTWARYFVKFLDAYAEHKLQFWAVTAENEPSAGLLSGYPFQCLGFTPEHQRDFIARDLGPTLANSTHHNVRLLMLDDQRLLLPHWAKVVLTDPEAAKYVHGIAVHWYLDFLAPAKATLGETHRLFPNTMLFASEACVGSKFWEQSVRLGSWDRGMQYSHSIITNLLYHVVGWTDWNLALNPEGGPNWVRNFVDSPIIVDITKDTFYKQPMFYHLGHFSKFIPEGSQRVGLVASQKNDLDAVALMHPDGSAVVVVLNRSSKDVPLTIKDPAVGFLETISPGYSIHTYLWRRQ
# Method: The ability of exemplary compounds to activate glucocerebrosidase (Gcase) was measured.
# A 484 μL aliquot of a 1.0 mg/mL solution of phosphatidylserine (PS) (Sigma P7769) in chloroform was evaporated under a stream of nitrogen for 1 hour. The lipid film was dissolved over 4 minutes of vigorous vortexing in 40 mL of 176 mM K2HPO4/50 mM citric acid (pH 4.7) containing 7.5 μL of triton X-100, resulting in a mixed micellar preparation with a composition of 0.32 mM triton and 0.37 mol % PS. 4-Methylumbelliferyl-beta-D-glucopyranoside (ACROS-337025000) was dissolved in the micellar solution to a final concentration of 2 mM for use as the reaction substrate.
# Test compounds were diluted to the desired concentrations with dimethylsulfoxide (DMSO) from 10 mM stocks, and 0.41 μL of the DMSO compound mixture was added to 100 μL of micellar solution containing 10 nM GCase and 100 nM saposin C (Enzo ALX-201-262-C050). Pre-incubation was allowed to occur for 30 minutes at room temperature, after which the reaction was initiated by combining 25 μL of substrate solution with 25 μL of compound/GCase/saposin mixture. The reaction proceeded for 15 minutes at room temperature and was stopped by adding 150 μL of 1M glycine, pH 12.5. The endpoint of the reaction was monitored by measuring fluorescence intensity (excitation: 365 nm; emission: 440 nm) on a SpectraMax i3 instrument (Molecular Devices). Test compounds were screened at 1.0 and 0.1 μM final concentration, and subsequent 8-point dose response curves were obtained using 3-fold dilutions from a maximum final concentration of 5 μM.
# For experiments in which the test compound was used at a concentration of 1.0 μM, the symbol “+” indicates less than 30% Gcase activation; the symbol “++” indicates Gcase activation in the range of 30% up to 60%; and the symbol “+++” indicates Gcase activation greater than 60%. For experiments in which the test compound was used at a concentration of 0.1 μM, the symbol “*” indicates less than 10% Gcase activation; the symbol “**” indicates Gcase activation in the range of 10% up to 20%; and the symbol “***” indicates greater than 20% Gcase activation.
Structure (SMILES),solubility [1] [µg/mL],activation at 0.1 µM [2] [%],activation at 1 µM [2] [%]
CCC(C)(NC(=O)c1ncn2c(C)cc(C)nc12)c1ccc(F)cc1 (centres unmarked) [III-43],14.7,10 to 20,> 60
Cc1cc(C)n2cnc(C(=O)Nc3ccc(-c4cocn4)cc3)c2n1 [III-3],4.8,< 10,30 to 60
Cc1cc(C)n2cnc(C(=O)Nc3ccc4nccc(O)c4c3)c2n1 [III-24],6,< 10,< 30
Cc1cc(C)n2cnc(C(=O)Nc3ccc(C)c(-c4ncco4)c3)c2n1 [III-26],0.5,10 to 20,> 60
C#Cc1ccc(C(C)(C)NC(=O)c2ncn3c(C)cc(C)nc23)cc1 [III-42],18.7,< 10,30 to 60
Cc1cc(C(F)(F)F)nc2c(C(=O)NC3(C)CCCc4ccccc43)ncn12 (centres unmarked) [III-34],24.9,< 10,< 30
O=C(NC1CCCc2ccccc21)c1ncn2c(C(F)F)cc(C(F)F)nc12 (centres unmarked) [III-32],17.2,< 10,< 30
Cc1cc(C)n2cnc(C(=O)Nc3ccc4cn[nH]c4c3)c2n1 [III-11],0.5,< 10,< 30
C#Cc1cccc(C(C)(C)NC(=O)c2ncn3c(C)cc(C)nc23)c1 [III-41],7.6,10 to 20,> 60
Cc1cc(C)n2cnc(C(=O)Nc3ccc4nc(C)sc4c3)c2n1 [III-21],1.1,< 10,< 30
Cc1cc(C)n2cnc(C(=O)Nc3ccc4[nH]c(C)cc4c3)c2n1 [III-7],0.7,< 10,< 30
Cc1cc(C)n2cnc(C(=O)NC3(C)CCCc4ccccc43)c2n1 (centres unmarked) [III-36],11.9,< 10,> 60
Cc1cc(C)n2cnc(C(=O)Nc3ccc(-c4ncco4)cc3)c2n1 [III-4],7.9,< 10,30 to 60
Cc1cc(C)n2cnc(C(=O)Nc3ncc(C)[nH]3)c2n1 [III-6],> 54,< 10,< 30
Cc1cc(C)n2cnc(C(=O)Nc3ccc4[nH]ncc4c3)c2n1 [III-8],0.4,< 10,< 30
Cc1cc(C)n2cnc(C(=O)Nc3ccc4c(c3)CCNC4)c2n1 [III-16],29.9,< 10,< 30
Cc1cc(C)n2cnc(C(=O)Nc3ccc4c(c3)CC(=O)N4)c2n1 [III-10],6.4,< 10,< 30
[2H]C1(NC(=O)c2ncn3c(C)cc(C)nc23)CCCCc2ccccc21 (centres unmarked) [III-38],14.9,10 to 20,> 60
C#Cc1cccc(C(C)(C)NC(=O)c2ncn3c(C)cc(C(F)(F)F)nc23)c1 [III-40],40.5,< 10,< 30
Cc1cc(C)n2cnc(C(=O)Nc3ccc(Cl)c(COc4cccnc4)c3)c2n1 [III-23],0.3,10 to 20,> 60
Cc1cc(C)n2cnc(C(=O)Nc3ccc4c(c3)OCO4)c2n1 [III-12],3.4,< 10,< 30
Cc1cc(C)n2cnc(C(=O)Nc3ccc(-c4cccs4)nc3)c2n1 [III-29],0.4,10 to 20,> 60
C#Cc1ccc(C(C)(C)NC(=O)c2ncn3c(C)cc(C(F)(F)F)nc23)cc1 [III-39],–,< 10,< 30
COCc1cc(C2CC2)nc2c(C(=O)NC3(C)CCOc4c(F)ccc(F)c43)ncn12 (centres unmarked) [III-33],–,10 to 20,> 60

# The remaining lines, values ahead:
solubility [1] [µg/mL],activation at 0.1 µM [2] [%],activation at 1 µM [2] [%],Structure (SMILES)
16.5,< 10,30 to 60,Cc1cc(C)n2cnc(C(=O)N[C@H](C)c3ccc(Cl)cc3)c2n1 [III-83]
20.3,10 to 20,> 60,CCC(NC(=O)c1ncn2c(C)cc(C)nc12)c1cccc(Cl)c1 (centres unmarked) [III-81]
37.3,< 10,< 30,Cc1cc(C)n2cnc(C(=O)N[C@@H](C)c3ccccc3F)c2n1 [III-74]
20.6,< 10,30 to 60,CCOCc1cccc(C(C)(C)NC(=O)c2ncn3c(COC)cc(C(C)C)nc23)c1 [III-61]
28.9,10 to 20,> 60,COCc1cc(C(C)C)nc2c(C(=O)NC(C)(C)c3cccc(OC4CC4)c3)ncn12 [III-58]
14.4,10 to 20,> 60,COCc1cc(C2CC2)nc2c(C(=O)NC(C)(C)c3cccc(OC4CC4)c3)ncn12 [III-56]
21,< 10,< 30,Cc1cc(C)n2cnc(C(=O)NC3CCc4ccccc43)c2n1 (centres unmarked) [III-68]
13.1,< 10,> 60,CCCCO[C@H]1[C@@H]2CC[C@H]1C[C@@H](NC(=O)c1ncn3c(C)cc(C)nc13)C2 [III-85]
36.2,< 10,30 to 60,CO[C@H]1CC[C@@H](C(C)(C)NC(=O)c2ncn3c(C)cc(C)nc23)CC1 [III-63]
0.6,< 10,30 to 60,Cc1cc(C)n2cnc(C(=O)Nc3ccc(-c4cscn4)cc3)c2n1 [III-64]
70.7,< 10,30 to 60,Cc1cc(C)n2cnc(C(=O)NC3CCCc4ccccc43)c2n1 (centres unmarked) [III-71]
31.6,< 10,< 30,CCOCc1cccc(C(C)(C)NC(=O)c2ncn3c(C4CC4)cc(COC)nc23)c1 [III-73]
0.9,10 to 20,> 60,Cc1cc(C)n2cnc(C(=O)Nc3cccc4c3CCC4)c2n1 [III-65]
23,< 10,30 to 60,COc1ccccc1[C@@H](C)NC(=O)c1ncn2c(C)cc(C)nc12 [III-76]
26.3,10 to 20,> 60,COCc1cc(C2CC2)n2cnc(C(=O)NC(C)(C)c3cccc(OC4CC4)c3)c2n1 [III-55]
16.6,< 10,30 to 60,Cc1cc(C)n2cnc(C(=O)NC3CCc4ccccc4C3)c2n1 (centres unmarked) [III-69]
1,> 20,> 60,Cc1cc(C(C)C)n2cnc(C(=O)Nc3cccc4c3CCC4)c2n1 [III-45]
25.9,< 10,< 30,CCOc1ccc(C(C)NC(=O)c2ncn3c(C)cc(C)nc23)cc1 (centres unmarked) [III-80]
4.9,10 to 20,> 60,Cc1cc(C)n2cnc(C(=O)N[C@H]3CC[C@H](OC4CCC(C)(C)CC4)CC3)c2n1 [III-46]
37.6,10 to 20,> 60,CCCOc1cccc(C(C)(C)NC(=O)c2ncn3c(COC)cc(COC)nc23)c1 [III-52]
–,10 to 20,> 60,C#Cc1ccc(NC(=O)c2ncn3c(C)cc(C)nc23)cc1F [III-49]
–,10 to 20,> 60,C#Cc1ccc(NC(=O)c2ncn3c(C)cc(C)nc23)c(F)c1 [III-48]
